In publication PMC11396746, “Stability Evaluation and Pharmacokinetic Profiling of Vepdegestrant in Rodents Using Liquid Chromatography–Tandem Mass Spectrometry” (Molecules, 2024):

What was measured:
[1] = Metabolic stability in human liver microsomes; assay type: in vitro ADME
Description: The metabolic stability of vepdegestrant was evaluated using liver microsomes obtained from mice, rats, dogs, and humans. Vepdegestrant was dissolved in DMSO to prepare a stock solution with a concentration of 0.1 mM. Microsomes (25 µL) were spiked into PBS (440 µL) and pre-incubated for 5 min. After pre-incubation, vepdegestrant stock solution (5 µL) was added, followed by an NADPH regenerating system (27 µL) to initiate the reaction. The composition of the reaction mixture was as follows: Vepdegestrant (final concentration 1 µM), mouse, rat, dog, human liver microsomes (protein concentration: 1 mg/mL), NADPH regenerating system (final concentrations: 1.3 mM NADP^+, 3.3 mM glucose-6-phosphate, 0.4 U/mL glucose-6-phosphate dehydrogenase, and 3.3 mM magnesium chloride), and PBS (pH 7.4). At 5, 15, 30, and 60 min after starting the reaction, aliquots (50 µL) were taken and added to ice-cold ACN with an IS (200 µL) to terminate the reaction. For the zero-time samples, aliquots were taken before adding NADPH. Subsequently, the mixture was vigorously mixed for 10 min and centrifuged at 17,054 g under 25 °C for 10 min. For analysis, 5 µL of the supernatant was injected into the HPLC-MS/MS system. In addition, the stability of vepdegestrant in rat liver microsomes was assessed in the absence of NADPH or NADPH and microsomes (PBS only). […]

[2] = Pharmacokinetic study in male ICR mice; assay type: in vivo; details: mouse
Description: (§1) Twelve healthy male ICR mice (6 weeks old, 27.5–30.5 g) and 10 healthy male Sprague–Dawley (SD) rats (7 weeks old, 195.5–212.0 g) were acquired from Orient Bio Inc. (Seongnam, Republic of Korea) and used for PK studies. The animals were kept in rooms in a temperature range of 20–25 °C, humidity of 40–60%, and a 12-h light/dark cycle. Before the experiment, mice were fasted for 4 h, whereas rats were fasted for 14 h, with only water provided during the fasting period. After 4 h of drug administration, animals were provided with free access to food and water. All animal experiments were approved by the Institutional Animal Care and Use Committee of the Chungnam National University (202310A-CNU-178; Daejeon, Republic of Korea).
For the PK studies in mice, a vepdegestrant dosing solution was prepared using a combination of DMSO, PEG400, and saline (5:25:70, v/v/v). The dosing solution was administered intravenously (IV, 2 mg/kg) through the tail vein or orally (PO, 5 mg/kg) through a gavage needle. The dose volume for both routes was 10 mL/kg. Blood samples (50 μL) were collected via the retro-orbital plexus at 0.05 (IV only), 0.25, 0.5, 1, 2, 4, 8, and 24 h post vepdegestrant administration using heparin-coated microcapillaries. Blood samples were immediately centrifuged at 12,032 g under 25 °C for 5 min, and plasma aliquots (20 μL) were stored at −20 °C until HPLC-MS/MS analysis.
(§2) The collected plasma samples from mice or rats (20 µL) were added with IS (20 µL) and ACN (160 µL). Subsequently, the mixture was vigorously mixed for 10 min and centrifuged at 17,054× g under 25 °C for 10 min. An aliquot of the supernatant (100 μL) was taken, and a volume of 5 μL was injected for HPLC-MS/MS analysis. PK parameters were calculated using Phoenix® 8.3 software (Certara L.P., Princeton, NJ, USA), as described previously.

[3] = Pharmacokinetic study in male SD rats; assay type: in vivo; details: rat
Description: as §1
For the PK studies in rats, a vepdegestrant dosing solution was prepared using a combination of DMSO, PEG 400, cremophor EL, and saline (5:40:2.5:52.5, v/v/v/v). The dosages were set at 2 and 5 mg/kg for IV and PO, respectively, consistent with mouse PK studies. The dose volumes were 2 and 5 mL/kg IV and PO, respectively. Blood samples (100 µL) were collected from the jugular vein using heparinized syringes at 0.08 (IV only), 0.25, 0.5, 1, 2, 4, 8, and 24 h post vepdegestrant administration. Blood samples were immediately centrifuged at 12,032 g under 25 °C for 5 min, and plasma aliquots (20 μL) were stored at −20 °C until HPLC-MS/MS analysis.
as §2

[4] = male, Sprague-Dawley, plasma, IV 2 mg/kg
[5] = male, Sprague-Dawley, plasma, PO 5 mg/kg

remaining percentage of unconverted vepdegestrant ([1]; 60 min, 1 μM, with NADPH): 98.3%
half-life at 1 µM ([1]; liver microsomes, pH 7.4): 13.4 h
Vd ([2]; male, ICR, plasma, intravenous, 2 mg/kg, read-out: volume of distribution): > 1 L/kg
Cmax ([2]; male, ICR, plasma, IV 2 mg/kg): 2180 ± 442 ng/mL
MRT ([2]; male, ICR, plasma, IV 2 mg/kg): 4.61 ± 1.43 h
Tmax ([2]; male, ICR, plasma, IV 2 mg/kg): 0.05 h
clearance ([2]; male, ICR, plasma, IV 2 mg/kg): 5.22 mL/min/kg
half-life ([2]; male, ICR, plasma, IV 2 mg/kg): 3.79 ± 1.15 h
Vd ([2]; male, ICR, plasma, IV 2 mg/kg, read-out: Vss): 1.43 ± 0.472 L/kg
Cmax ([2]; male, ICR, plasma, PO 5 mg/kg): 393 ± 133 ng/mL
MRT ([2]; male, ICR, plasma, PO 5 mg/kg): 5.58 ± 1.34 h
Tmax ([2]; male, ICR, plasma, PO 5 mg/kg): 1 h
half-life ([2]; male, ICR, plasma, PO 5 mg/kg): 3.64 ± 1.4 h
bioavailability ([2]; male, ICR, plasma, PO 5 mg/kg vs IV 2 mg/kg, read-out: BA (oral bioavailability)): 17.9 ± 4.35%
AUCinf ([2]; IV 2 mg/kg): 6510 ± 1060 ng·h/mL
AUClast ([2]; IV 2 mg/kg): 6400 ± 1080 ng·h/mL
AUCinf ([2]; PO 5 mg/kg): 2910 ± 707 ng·h/mL
AUClast ([2]; PO 5 mg/kg): 2870 ± 704 ng·h/mL
clearance as % of liver blood flow ([2]; liver blood flow 5.4 L/h/kg): 5.8%
Cmax [3, 4]: 850 ± 95 ng/mL
MRT [3, 4]: 4.14 ± 0.348 h
Tmax [3, 4]: 0.083 h
clearance [3, 4]: 17.6 mL/min/kg
half-life [3, 4]: 3.97 ± 0.284 h
Cmax [3, 5]: 108 ± 38 ng/mL
MRT [3, 5]: 6.54 ± 0.965 h
Tmax [3, 5]: 3.2 ± 2.95 h
half-life [3, 5]: 4.07 ± 0.418 h
bioavailability ([3]; male, Sprague-Dawley, plasma, PO 5 mg/kg vs IV 2 mg/kg, read-out: BA (oral bioavailability)): 24.1 ± 9.39%
Vd ([3]; male, Sprague-Dawley, plasma, intravenous, 2 mg/kg, read-out: volume of distribution): > 1 L/kg
Vd ([3]; male, Sprague-Dawley, plasma, iv, 2 mg/kg, IV 2 mg/kg, read-out: Vss): 4.43 ± 0.3 L/kg
AUCinf ([3]; IV 2 mg/kg): 1900 ± 90 ng·h/mL
AUClast ([3]; IV 2 mg/kg): 1880 ± 84 ng·h/mL
Vss ([3]; IV 2 mg/kg, 2 mg/kg): 4.354 ± 0.3 L/kg
AUCinf ([3]; PO 5 mg/kg): 1150 ± 446 ng·h/mL
AUClast ([3]; PO 5 mg/kg): 1120 ± 428 ng·h/mL
clearance as % of liver blood flow ([3]; liver blood flow 3.3 L/h/kg): approximately 31.9%
Structure (SMILES): O=C1CC[C@H](N2Cc3cc(N4CCN(CC5CCN(c6ccc([C@@H]7c8ccc(O)cc8CC[C@@H]7c7ccccc7)cc6)CC5)CC4)ccc3C2=O)C(=O)N1 [vepdegestrant, Vepdegestrant]
